Several values for one entry are separate records, joined by “and”; a condition that tells them apart may be missing. Identical values can stand only once. Counter-ions that a name gives are not always drawn.
How the values were obtained:
rhLOXL2 [1] = molecular target: T1, rhLOXL2 (Homo sapiens (Human), UniProt Q9Y4K0); assay: antibody/bioprobe ELISA assay detecting rhLOXL2; type: binding
Procedure: Antibody A (AF2639) was conjugated to beads, bound to high protein binding plates (microlon 600, high binding, flat bottom, Greiner 655061 using coating buffer containing 71.5 mM NaHCO3 and 28.5 mM Na2CO3) overnight at 4° C. After washing with a mild detergent (0.05% Tween 20) to remove excess and unbound antibody, the beads or plates were then incubated with blocking solution (1-5% BSA/TBS) to block any free binding spots, for 1 hour at room temperature. The blocking solution was then removed and rhLOXL2 was added and incubated for 3 hours at 4° C. After washing (with a mild detergent) to remove excess/unbound protein, bioprobe Compound 1-1 (which is conjugated with biotin) was incubated for 2 hours at 37° C. at a concentration between IC50 to IC100 of the rhLOXL2 (as measured in a standard biochemical assay eg Amplex Red/Resorufin). After a washing step (with a mild detergent) streptavidin conjugated to horseradish peroxidase or an appropriate label was added and incubation was continued for 1 hour at room temperature. After an additional washing step (with mild TBS/tween detergent), a detection substrate (resorufin or TMB) was added followed by the fluorescence read at Excitation: 565 nm/Emmission: 590 nm or maximum absorbance at 450 nm. A suitable capture antibody will allow for bioprobe binding whilst providing a large signal.
FIG. 3 depicts the absorbance values (optical density 450 nm) from the antibody/bioprobe assay, using one antibody and Compound 1-1 (FIG. 3A) AF2639 was used as the capture antibody, rhLOXL2 was used as the antigen and 80 nM of Compound 1-1 was used as the detection. FIG. 3B) Fitzgerald 70R-12876 was used as the capture antibody, rhLOXL2 is used as the antigen and 80 nM of Compound 1-1 is used as the detection.
When the bioprobe contains two biotin moieties, the signal is more robust than a single biotin counterpart. […] AF2639 was used as the capture, rhLOXL2 was used as the antigen and 78 nM of Compound 1-12 was used for detection.

LOX in human serum = LOX in human serum (Homo sapiens (Human), UniProt P28300); assay: LOX Bioprobe Activity Assay (Simoa); type: biochemical
Procedure: The LOX Bioprobe Assay used a Simoa HD-1 analyzer and Simoa technology to run a 2-step digital immunoassay, to measure the activity of unbound LOX in human serum.
This assay used the same anti-LOX capture antibody as for the Protein Concentration Assay. The bioprobe (Compound 1-12) was diluted down to 130 μM in deionized H2O prior to being diluted in Detector Buffer. Before being loaded onto the analyzer, samples were diluted at least 6 fold in Assay Buffer (1% BSA, 0.25% Rabbit Serum, 2% PEG (20k MW), 0.55% Tween-20, 1×PBS; used to dilute samples, controls, and detector reagent). To determine the background signal, diluted samples were pre-incubated for 30 min with LOX inhibitor beta-aminoproprionitrile (BAPN).
In the LOX Bioprobe Activity 2-step immunoassay, target-antibody-coated paramagnetic beads (500k per mL) were combined with diluted sample and biotinylated detector-bioprobe ([…]) in the same incubation cuvette for 54 minutes. […]
A single-labeled target molecule results in sufficient fluorescent signal in 30 seconds to be detected and counted by the Simoa optical system. […] At higher target concentration, when most of the bead-containing wells have one or more labeled target molecules, the total fluorescence signal is proportional to the amount of target present in the sample. […]

rhLOXL2 [2] = molecular target: T1, rhLOXL2; assay: LOXL2 inhibition, peroxidase-coupled Amplex Red assay; type: biochemical; settings: 30 min preincubation at 37° C.
Source text: (§1) Method to Determine the Ability of Compounds of the Invention to Inhibit LOX and LOXL1-4 from Different Sources […] S., Trackman P. C. and Kagan H. M., Reaction of aortic lysyl oxidase with beta-aminoproprionitrile. J Biol Chem 1983; 258: 4331-4338). There are five LOX family members; these are LOX, LOXL1, LOXL2, LOXL3 and LOXL4. LOX and LOXL family members can be acquired as recombinant active proteins from commercial sources, or extracted from animal tissues like bovine aorta, tendons, pig skin; or prepared from cell cultures. The inhibitory effects of the compounds of the present invention were tested against the given LOX-LOXL preparation using a high-throughput coupled colorimetric method (Holt A. and Palcic M., A peroxidase-coupled continuous absorbance plate-reader assay for flavin monoamine oxidases, copper-containing amine oxidases and related enzymes. Nat. Protoc. 2006; 1: 2498-2505). The assay was developed using either 384 or 96 well format. […] Test compounds were dissolved in DMSO and tested in a Concentration Response Curve (CRC) with 11 data points, typically in the micromolar or nanomolar range after incubation with the enzyme for 30 min at 37° C. 25 μL of a reaction mixture containing twice the KM concentration of putrescine (Sigma Aldrich, e.g. 20 mM for LOX, or 10 mM for LOXL2 and LOXL3), 120 μM Amplex Red (Sigma Aldrich) and 1.5 U/mL horseradish peroxidase (Sigma Aldrich) prepared in 1.2 M urea, 50 mM sodium borate buffer (pH 8.2) were then added to the corresponding wells. The above volumes were doubled in the case of 96 well plates. The fluorescence (RFU) was read every 2.5 m n for 30 m u […], excitation 565 nm and emission 590 nm (Optima; BMG labtech). The slope of the kinetics for each well was calculated using MARS data analysis software (BMG labtech) and this value was used to deduce the IC50 value (Dotmatics).

rhLOXL2 [3] = molecular target: T1, rhLOXL2; assay: sandwich ELISA with bioprobe pre-incubated with rhLOXL2; type: binding; settings: 400 nM bioprobe pre-incubated, 1250 ng/mL rhLOXL2, AF2639 capture, antibody C (C-AB179810) detection, FIG. 5
Procedure: A further aim was directed at determining whether the presence of bioprobe (Compound 1-1), pre-incubated and bound to the active site of rhLOXL2, would affect antibody binding and detection by sandwich ELISA. […] FIG. 5 depicts the absorbance values (optical density 460 nm) from the antibody/antibody assay, using two antibodies. Antibody A (AF2639) was used as the capture antibody, 1250 ng/mL rhLOXL2 was used as the antigen and antibody C (C-AB179810) was used as the detection antibody. 400 nM of Compound 1-1 was pre-incubated with rhLOXL2 before commencement of the ELISA assay.

Bovine LOX = Bovine LOX (Bos taurus (Bovine), UniProt P33072); assay: LOX inhibition, peroxidase-coupled Amplex Red assay; type: biochemical; settings: 30 min preincubation at 37° C.
Source text: as §1

Human LOXL3 = Human LOXL3 (Homo sapiens (Human), UniProt P58215); assay: LOXL3 inhibition, peroxidase-coupled Amplex Red assay; type: biochemical; settings: 30 min preincubation at 37° C.
Source text: (§2) Method to Determine the Ability of Compounds of the Invention to Inhibit LOX and LOXL1-4 from Different Sources […] S., Trackman P. C. and Kagan H. M., Reaction of aortic lysyl oxidase with beta-aminoproprionitrile. J Biol Chem 1983; 258: 4331-4338). There are five LOX family members; these are LOX, LOXL1, LOXL2, LOXL3 and LOXL4. LOX and LOXL family members can be acquired as recombinant active proteins from commercial sources, or extracted from animal tissues like bovine aorta, tendons, pig skin; or prepared from cell cultures. The inhibitory effects of the compounds of the present invention were tested against the given LOX-LOXL preparation using a high-throughput coupled colorimetric method (Holt A. and Palcic M., A peroxidase-coupled continuous absorbance plate-reader assay for flavin monoamine oxidases, copper-containing amine oxidases and related enzymes. Nat. Protoc. 2006; 1: 2498-2505). The assay was developed using either 384 or 96 well format. […] The fluorescence (RFU) was read every 2.5 m n for 30 m u at a range of temperatures from 37° C. to 45° C., excitation 565 nm and emission 590 nm (Optima; BMG labtech). The slope of the kinetics for each well was calculated using MARS data analysis software (BMG labtech) and this value was used to deduce the IC50 value (Dotmatics).

Human LOXL1 = Human LOXL1 (Homo sapiens (Human), UniProt Q08397); assay: LOXL1 inhibition, peroxidase-coupled Amplex Red assay; type: biochemical; settings: 30 min preincubation at 37° C.
Source text: as §2

Human LOXL4 = Human LOXL4 (Homo sapiens (Human), UniProt Q96JB6); assay: LOXL4 inhibition, peroxidase-coupled Amplex Red assay; type: biochemical; settings: 30 min preincubation at 37° C.
Source text: as §2

Bovine LOX, sequence (P33072 170-418): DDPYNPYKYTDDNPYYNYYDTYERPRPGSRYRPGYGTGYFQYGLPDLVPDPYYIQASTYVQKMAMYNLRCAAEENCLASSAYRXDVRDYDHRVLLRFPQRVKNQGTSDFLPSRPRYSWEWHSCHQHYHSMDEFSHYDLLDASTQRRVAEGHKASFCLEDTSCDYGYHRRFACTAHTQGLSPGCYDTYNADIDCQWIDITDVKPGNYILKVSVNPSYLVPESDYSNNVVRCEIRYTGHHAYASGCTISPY
LOX in human serum, sequence (P28300 169-417): as the sequence (P33072 170-418) above, with T10S, S29G, P49A, A64S, S80T, X84A, S142N, N188G, S224T, E231D counted along it
T1 sequence (Q9Y4K0 26-774): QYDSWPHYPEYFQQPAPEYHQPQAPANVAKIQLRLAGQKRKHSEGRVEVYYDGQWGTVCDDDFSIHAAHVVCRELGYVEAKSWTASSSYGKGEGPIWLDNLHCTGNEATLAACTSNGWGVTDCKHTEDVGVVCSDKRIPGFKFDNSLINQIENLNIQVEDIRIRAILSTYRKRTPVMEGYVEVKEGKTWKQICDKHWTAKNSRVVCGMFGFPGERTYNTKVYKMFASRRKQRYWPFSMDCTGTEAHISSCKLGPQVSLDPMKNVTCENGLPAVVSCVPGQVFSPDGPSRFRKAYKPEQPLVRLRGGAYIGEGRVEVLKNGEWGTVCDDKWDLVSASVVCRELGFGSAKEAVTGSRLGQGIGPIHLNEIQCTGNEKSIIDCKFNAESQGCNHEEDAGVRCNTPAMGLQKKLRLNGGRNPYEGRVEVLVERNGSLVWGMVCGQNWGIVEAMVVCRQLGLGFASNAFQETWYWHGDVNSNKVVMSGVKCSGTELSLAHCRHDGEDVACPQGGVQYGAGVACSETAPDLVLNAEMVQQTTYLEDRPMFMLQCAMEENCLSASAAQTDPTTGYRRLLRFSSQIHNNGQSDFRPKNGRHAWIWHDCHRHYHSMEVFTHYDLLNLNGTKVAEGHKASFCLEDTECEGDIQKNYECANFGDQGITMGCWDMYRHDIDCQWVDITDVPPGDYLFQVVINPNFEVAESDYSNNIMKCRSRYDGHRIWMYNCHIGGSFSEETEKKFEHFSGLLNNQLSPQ
Human LOXL3, sequence (P58215 26-753): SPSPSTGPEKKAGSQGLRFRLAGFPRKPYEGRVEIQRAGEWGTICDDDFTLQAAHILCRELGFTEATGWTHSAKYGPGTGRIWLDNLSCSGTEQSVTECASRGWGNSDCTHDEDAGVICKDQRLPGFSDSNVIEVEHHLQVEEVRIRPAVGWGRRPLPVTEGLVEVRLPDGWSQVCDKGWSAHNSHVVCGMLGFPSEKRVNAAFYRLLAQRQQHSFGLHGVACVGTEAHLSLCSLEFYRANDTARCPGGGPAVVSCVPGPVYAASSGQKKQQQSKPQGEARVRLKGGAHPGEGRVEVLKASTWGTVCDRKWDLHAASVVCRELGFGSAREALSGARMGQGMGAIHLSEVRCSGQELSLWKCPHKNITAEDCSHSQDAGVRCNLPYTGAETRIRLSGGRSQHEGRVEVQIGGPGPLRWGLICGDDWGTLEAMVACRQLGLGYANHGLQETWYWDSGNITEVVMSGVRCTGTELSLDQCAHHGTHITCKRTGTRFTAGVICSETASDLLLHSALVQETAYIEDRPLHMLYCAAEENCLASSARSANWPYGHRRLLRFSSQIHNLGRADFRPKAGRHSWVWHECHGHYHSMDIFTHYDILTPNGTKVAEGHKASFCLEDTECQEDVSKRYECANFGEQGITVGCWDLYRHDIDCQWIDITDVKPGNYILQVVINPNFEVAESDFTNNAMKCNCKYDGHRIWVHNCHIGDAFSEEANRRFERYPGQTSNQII
Human LOXL4, sequence (Q96JB6 25-756): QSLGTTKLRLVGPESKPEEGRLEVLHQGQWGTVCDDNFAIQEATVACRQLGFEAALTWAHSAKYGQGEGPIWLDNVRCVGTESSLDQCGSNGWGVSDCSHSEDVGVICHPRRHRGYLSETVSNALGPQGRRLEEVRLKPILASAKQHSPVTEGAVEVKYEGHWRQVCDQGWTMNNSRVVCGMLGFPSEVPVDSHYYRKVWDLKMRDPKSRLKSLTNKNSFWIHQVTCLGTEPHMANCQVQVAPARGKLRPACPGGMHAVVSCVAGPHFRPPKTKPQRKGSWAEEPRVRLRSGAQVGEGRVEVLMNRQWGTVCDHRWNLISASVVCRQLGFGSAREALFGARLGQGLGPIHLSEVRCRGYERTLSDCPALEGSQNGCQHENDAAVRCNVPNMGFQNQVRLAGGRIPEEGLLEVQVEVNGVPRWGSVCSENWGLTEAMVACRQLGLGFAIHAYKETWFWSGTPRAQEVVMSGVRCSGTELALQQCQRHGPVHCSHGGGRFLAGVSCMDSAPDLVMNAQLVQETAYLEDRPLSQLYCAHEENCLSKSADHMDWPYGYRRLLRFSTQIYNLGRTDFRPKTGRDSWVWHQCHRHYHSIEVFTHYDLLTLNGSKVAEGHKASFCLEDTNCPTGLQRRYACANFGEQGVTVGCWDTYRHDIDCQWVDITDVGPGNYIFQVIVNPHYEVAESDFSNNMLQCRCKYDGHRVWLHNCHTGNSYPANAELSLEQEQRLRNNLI
Human LOXL1, sequence (Q08397 96-574): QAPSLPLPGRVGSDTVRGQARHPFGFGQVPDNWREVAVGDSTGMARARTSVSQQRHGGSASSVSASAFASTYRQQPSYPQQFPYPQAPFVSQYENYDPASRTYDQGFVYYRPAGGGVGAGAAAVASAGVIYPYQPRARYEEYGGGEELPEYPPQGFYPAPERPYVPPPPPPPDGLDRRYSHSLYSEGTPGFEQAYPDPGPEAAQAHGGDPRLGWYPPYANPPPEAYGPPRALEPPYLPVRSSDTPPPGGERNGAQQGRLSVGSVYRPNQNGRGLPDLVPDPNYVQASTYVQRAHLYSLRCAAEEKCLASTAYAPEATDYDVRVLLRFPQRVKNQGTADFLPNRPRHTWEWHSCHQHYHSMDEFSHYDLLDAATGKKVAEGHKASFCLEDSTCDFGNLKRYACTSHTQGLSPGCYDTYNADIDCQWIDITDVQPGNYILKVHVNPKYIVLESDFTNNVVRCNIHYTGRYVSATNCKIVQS

Row | Compound | effect of inhibitor on bioprobe rhLOXL2 signal (rhLOXL2 [1]; AF2639 capture, Compound 1-1 detection, FIG. 3A) | Average signal (LOX in human serum; human serum + CM (×100 diluted) + BAPN, bioprobe Compound 1-12) | effect of inhibitor on LOX bioprobe signal (LOX in human serum; human serum spiked with human fibroblast conditioned media) | rhLOXL2 signal by bioprobe detection (optical density 450 nm) (rhLOXL2 [1]; Antibody A (AF2639) as capture antibody, 80 nM bioprobe, FIG. 3A) | rhLOXL2 detection by bioprobe (optical density 450 nm) (rhLOXL2 [1]; Antibody B (Fitzgerald 70R-12876) as capture antibody, 80 nM bioprobe, FIG. 3B) | IC50 (rhLOXL2 [2]) | rhLOXL2 detection levels in the presence or absence of bioprobe (rhLOXL2 [3]) | IC50 (Bovine LOX) | signal of bioprobe with two biotin moieties versus single biotin counterpart (optical density 460 nm) (rhLOXL2 [1]; AF2639 capture, 78 nM bioprobe, FIG. 4) | IC50 (Human LOXL3) | IC50 (Human LOXL1) | IC50 (Human LOXL4)
1 | N#CCCN [BAPN, β-aminopropionitrile] | the signal is ablated | 0.0093 and 0.0077 | significantly reduces the signal |  |  |  |  |  |  |  |  | 
2 | Cc1c(Cc2ccc(S(=O)(=O)N(C)C)cc2)c2cc(C(=O)N3CCN(C(=O)CCCC[C@@H]4SC[C@@H]5NC(=O)N[C@@H]54)CC3)ccc2n1C/C(F)=C/CN [Compound 1-1, 4-((1-((Z)-4-amino-2-fluorobut-2-en-1-yl)-2-methyl-5-(4-(5-((3aS,4S,6aR)-2-oxohexahydro-1H-thieno[3,4-d]imidazol-4-yl)pentanoyl)piperazine-1-carbonyl)-1H-indol-3-yl)methyl)-N,N-dimethylbenzenesulfonamide hydrochloride] |  |  |  | shows a specific rhLOXL2 signal | prevents the detection of rhLOXL2 | < 300 nM | no difference in rhLOXL2 detection levels | > 300 nM |  |  |  | 
3 | NC/C=C(\F)CS(=O)(=O)c1cccc(Cn2cc(-c3cc(OCCCc4cn(CCCCC[C@@H]5SC[C@@H]6NC(=O)N[C@@H]65)nn4)cc(OCCCc4cn(CCCCC[C@@H]5SC[C@@H]6NC(=O)N[C@@H]65)nn4)c3)nn2)c1 [Compound 1-12, (3aS,3a'S,4S,4'S,6aR,6a′R)-4,4′-(((((5-(1-(3-(((Z)-4-amino-2-fluorobut-2-en-1-yl)sulfonyl)benzil)-1H-1,2,3-triazol-4-yl)-1,3-phenylene)bis(oxy))bis(propane-3,1-diyl))bis(1H-1,2,3-triazole-4,1-diyl))bis(pentane-5,1-diyl))bis(tetrahydro-1H-thieno[3,4-d]imidazol-2(3H)-one) hydrochloride] |  |  |  |  |  | < 300 nM |  | > 300 nM | more robust | > 300 nM | > 300 nM | < 300 nM
4 | CN(C)S(=O)(=O)c1ccc(C(OCc2ccc(-n3cc(CNC(=O)CCCC[C@@H]4SC[C@@H]5NC(=O)N[C@@H]54)nn3)cc2)c2cn(C/C(F)=C/CN)nn2)cc1 (stereo partly drawn) [Compound 1-15, N-((1-(4-(((1-((Z)-4-amino-2-fluorobut-2-en-1-yl)-1H-1,2,3-triazol-4-yl)(4-(N,N-dimethylsulfamoyl)phenyl)methoxy)methyl)phenyl)-1H-1,2,3-triazol-4-yl)methyl)-5-((3aS,4S,6aR)-2-oxohexahydro-1H-thieno[3,4-d]imidazol-4-yl)pentanamide hydrochloride] |  |  |  |  |  | < 300 nM |  | < 300 nM |  | < 300 nM |  | 

Reference: patent publication US20230349907A1, “BIOPROBES FOR LYSYL OXIDASES AND USES THEREOF” (Pharmaxis Ltd., priority 2020, published 2023)
